Reference: publication PMC3640414 (Journal of Medicinal Chemistry, 2013)
Each block holds one molecule with its values, some of them ahead of it.

Columns and labels:
[1] = tested on: A549 (lung adenocarcinoma) cells; experiment: MTS cytotoxicity assay, A549 cells; assay type: cell-based; details: 100 μM, 72 h
From the text: (§1) We also investigated the effects of 8 and 9 in two lung adenocarcinoma cell lines, A549 and H1975. […] H1975 appeared to be somewhat more sensitive to these compounds, a finding confirmed by a clonogenic survival assay (Supporting Information Figure S5).
(§2) Viability of MV4;11, H549, and H1975 cells was monitored by MTS-based CellTiter 96 AQueous nonradioactive cell proliferation assay (Promega, Madison, WI). Viability of U2OS and HeLa cells was monitored by WST-based cell proliferation kit (Roche, Mannheim, Germany). Further details are provided in Supporting Information

[2] = tested on: H1975 (lung adenocarcinoma) cells; experiment: MTS cytotoxicity assay, H1975 cells; assay type: cell-based; details: 100 μM, 72 h
From the text: as §1, §2

BRD4(1) = molecular target: T1, BRD4(1) (Homo sapiens, UniProt O60885); experiment: AlphaScreen peptide displacement assay (ALPHA), BRD4(1); assay type: binding
T1 construct: amplify the N-terminal bromodomain region of the protein; made in house

MV4;11 (AML) cells = experiment: MTS cytotoxicity assay, MV4;11 cells; assay type: cell-based; details: Homo sapiens, viability after 72 h
[3] = molecular target: bromodomain of cAMP response element binding protein (CREB) binding protein (UniProt Q92793 1081-1197); experiment: AlphaScreen or HTRF; peptide displacement ALPHA assay; CREBBP bromodomain and biotinylated H3K56Ac peptide, protein and peptide concentration 200 nM (Table 1) or 50 nM (Table 2); small-molecule competitors; duplicate on the same plate; details: both partners purified
Chain of bromodomain of cAMP response element binding protein (CREB) binding protein (Q92793 1081-1197): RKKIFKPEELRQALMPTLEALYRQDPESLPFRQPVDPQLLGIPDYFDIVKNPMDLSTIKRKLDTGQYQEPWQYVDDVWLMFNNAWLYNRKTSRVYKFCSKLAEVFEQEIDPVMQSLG

Molecule: CC(=O)Oc1cc(-c2c(C)noc2C)cc(C(O)c2ccccc2)c1 (stereo not drawn) [Compound 9, 3-(3,5-Dimethylisoxazol-4-yl)-5-(hydroxy(phenyl)methyl)phenyl Acetate]
effect on viability of A549 cells [1]: markedly reduced the viability
effect on viability of H1975 cells [2]: markedly reduced the viability

selectivity for BRD4(1) over CREBBP bromodomain (BRD4(1); comparison of ALPHA IC50 values): approximately 6 fold
ligand efficiency (BRD4(1); for BRD4(1)): 0.36
Molecule: CCOc1cc(-c2c(C)noc2C)cc(C(O)c2ccccc2)c1 (stereo not drawn) [Compound 12, (3-(3,5-Dimethylisoxazol-4-yl)-5-ethoxyphenyl)(phenyl)methanol]

Molecule: CN1CCC(CNc2ccc3ncc(-c4cccc(OC(F)(F)F)c4)n3n2)CC1 [SGI-1176, SGI-1776]
IC50 (MV4;11 (AML) cells): 53 nM

binding result [3]: binds
B1: H3K56Ac peptide (peptide)
peptide: ALREIRRYQKSTELLIRKLK
modifications: K(Ac) (acetyl-lysine) at the 10th residue (K56 of histone H3 by the peptide's name); K(biotin) at the C-terminal lysine
